Measurements: PMC10465233, “Lys-urea-Aad, Lys-urea-Cmc and Lys-urea-Cms as potential pharmacophores for the design of PSMA-targeted radioligands to reduce off-target uptake in kidneys and salivary glands” (Theranostics, 2023)
Where two headings read alike, the source gives them in different places.

Experiments:
[1] = test system: LNCaP tumor-bearing mice; details: cited from earlier work
[2] = parameters: method as in earlier work; details: cited from earlier work
[3] = test system: LNCaP tumor-bearing mice; experiment: Ex vivo biodistribution in LNCaP tumor-bearing mice; parameters: species or system mouse
Method: Imaging, biodistribution and radioligand therapy experiments were performed following previously published procedures using male NOD-scid IL2Rg^null (NSG) or NOD.Cg-Rag1^tm1MomIl2rg^tm1Wjl/SzJ (NRG) mice [10]-[12],[14]-[15]. The experiments were conducted according to the guidelines established by the Canadian Council on Animal Care and approved by Animal Ethics Committee of the University of British Columbia. The mice were briefly sedated by inhalation of 2% isoflurane in oxygen, and implanted subcutaneously with 1×10^7 LNCaP cells behind the left shoulder. The mice were imaged or used in biodistribution studies when the tumor grew to 5-8 mm in diameter over a period of 4-5 weeks.
For biodistribution studies, the mice were injected with the radioligand (2-4 MBq) as described above. For blocking, the mice were co-injected with nonradioactive DCFPyL (0.5 mg). At predetermined time points, the mice were sedated by isoflurane inhalation and euthanized by CO2 inhalation. Blood was withdrawn by cardiac puncture, and organs/tissues of interest were collected, weighed and counted using an automatic gamma counter (Tables S4-S7).

## O=C([O-])CN1CCN(CC(=O)[O-])CCN(CC(=O)NCC2CCC(C(=O)NC(Cc3c4ccccc4cc4ccccc34)C(=O)NCCCCC(NC(=O)NC(CCC(=O)O)C(=O)O)C(=O)O)CC2)CCN(CC(=O)[O-])CC1.[68Ga+3] (stereo not drawn) [[^68Ga]Ga-HTK03141]
[1]; 1 h post-injection
  Kidney uptake: 170±26.4 %ID/g
  Tumor uptake: 23.1±6.11 %ID/g
[1]; 1 h post-injection, unreported data in b5
  Salivary gland uptake: 4.99±0.88 %ID/g
[1]
  Peaked tumor uptake: 23.1 %ID/g

## O=C([O-])CN1CCN(CC(=O)[O-])CCN(CC(=O)NCC2CCC(C(=O)NC(Cc3c4ccccc4cc4ccccc34)C(=O)NCCCCC(NC(=O)NC(CCCC(=O)O)C(=O)O)C(=O)O)CC2)CCN(CC(=O)[O-])CC1.[177Lu+3] (stereo not drawn) [[^177Lu]Lu-HTK03149]
[2]; source organ Brain
  Kinetics value: 2.23E-03 MBq-h/MBq
[2]; source organ Cortical bone
  Kinetics value: 7.60E-02 MBq-h/MBq
[2]; source organ Heart
  Kinetics value: 1.94E-02 MBq-h/MBq
[2]; source organ Kidneys
  Kinetics value: 2.41E-01 MBq-h/MBq
[2]; source organ Large intestine contents
  Kinetics value: 9.24E-02 MBq-h/MBq
[2]; source organ Liver
  Kinetics value: 3.91E-01 MBq-h/MBq
[2]; source organ Lungs
  Kinetics value: 1.72E-02 MBq-h/MBq
[2]; source organ Pancreas
  Kinetics value: 1.79E-02 MBq-h/MBq
[2]; source organ Remainder of the body
  Kinetics value: 5.31E-01 MBq-h/MBq
[2]; source organ Spleen
  Kinetics value: 2.30E-02 MBq-h/MBq
[2]; source organ Stomach
  Kinetics value: 8.07E-03 MBq-h/MBq
[2]; source organ Testes
  Kinetics value: 1.29E-02 MBq-h/MBq
[2]; source organ Thyroid
  Kinetics value: 2.03E-03 MBq-h/MBq
[2]; source organ Urinary bladder
  Kinetics value: 8.14E-01 MBq-h/MBq

## COc1ccc(CCCC(=O)NCC(=O)N[C@@H](CCCCNC(=O)CN2CCN(CC(=O)[O-])CCN(CC(=O)[O-])CCN(CC(=O)[O-])CC2)C(=O)NC[C@H]2CC[C@H](C(=O)N[C@@H](Cc3c4ccccc4cc4ccccc34)C(=O)NCCCC[C@H](NC(=O)N[C@@H](CSCC(=O)O)C(=O)O)C(=O)O)CC2)cc1.[177Lu+3] [[^177Lu]Lu-HTK04048]
[3]; 1 h post-injection
  Adrenal glands uptake: 4.43 ± 1.11 %ID/g
  Blood uptake: 19.8 ± 3.38 %ID/g
  Blood:Salivary gland uptake ratio: 6.78 ± 0.76
  Bone uptake: 1.10 ± 0.16 %ID/g
  Brain uptake: 0.29 ± 0.03 %ID/g
  Fat uptake: 1.56 ± 0.45 %ID/g
  Heart uptake: 4.74 ± 0.60 %ID/g
  Intestines uptake: 1.38 ± 0.22 %ID/g
  Kidneys uptake: 17.4 ± 4.32 %ID/g
  Lacrimal glands uptake: 0.42 ± 0.12 %ID/g
  Liver uptake: 3.94 ± 0.69 %ID/g
  Lungs uptake: 9.52 ± 1.44 %ID/g
  Muscle uptake: 1.54 ± 0.20 %ID/g
  Pancreas uptake: 1.77 ± 0.17 %ID/g
  Salivary glands uptake: 2.92 ± 0.36 %ID/g
  Spleen uptake: 2.57 ± 0.48 %ID/g
  Stomach uptake: 0.75 ± 0.11 %ID/g
  Testes uptake: 2.60 ± 0.62 %ID/g
  Thyroid uptake: 3.97 ± 0.47 %ID/g
  Tumor uptake: 16.5 ± 5.48 %ID/g
  Tumor:Blood uptake ratio: 0.84 ± 0.22
  Tumor:Kidney uptake ratio: 0.99 ± 0.34
  Tumor:Muscle uptake ratio: 10.7 ± 2.87
  Tumor:Salivary gland uptake ratio: 5.64 ± 1.51
[3]; 4 h post-injection
  Adrenal glands uptake: 2.17 ± 0.21 %ID/g
  Blood uptake: 11.7 ± 1.39 %ID/g
  Blood:Salivary gland uptake ratio: 6.12 ± 0.58
  Bone uptake: 0.69 ± 0.11 %ID/g
  Brain uptake: 0.18 ± 0.01 %ID/g
  Fat uptake: 0.94 ± 0.13 %ID/g
  Heart uptake: 2.87 ± 0.30 %ID/g
  Intestines uptake: 1.00 ± 0.08 %ID/g
  Kidneys uptake: 12.5 ± 1.35 %ID/g
  Lacrimal glands uptake: 0.54 ± 0.52 %ID/g
  Liver uptake: 2.28 ± 0.46 %ID/g
  Lungs uptake: 5.92 ± 0.79 %ID/g
  Muscle uptake: 0.96 ± 0.09 %ID/g
  Pancreas uptake: 1.15 ± 0.14 %ID/g
  Salivary glands uptake: 1.91 ± 0.20 %ID/g
  Spleen uptake: 1.96 ± 0.39 %ID/g
  Stomach uptake: 0.71 ± 0.13 %ID/g
  Testes uptake: 2.72 ± 0.34 %ID/g
  Thyroid uptake: 2.68 ± 0.23 %ID/g
  Tumor uptake: 39.4 ± 22.4 %ID/g
  Tumor:Blood uptake ratio: 3.49 ± 2.31
  Tumor:Kidney uptake ratio: 3.27 ± 2.16
  Tumor:Muscle uptake ratio: 42.2 ± 27.3
  Tumor:Salivary gland uptake ratio: 20.9 ± 11.9
[3]; 24 h post-injection
  Adrenal glands uptake: 0.67 ± 0.26 %ID/g
  Blood uptake: 0.62 ± 0.16 %ID/g
  Blood:Salivary gland uptake ratio: 1.61 ± 0.40
  Bone uptake: 0.11 ± 0.02 %ID/g
  Brain uptake: 0.03 ± 0.00 %ID/g
  Fat uptake: 0.15 ± 0.05 %ID/g
  Heart uptake: 0.34 ± 0.05 %ID/g
  Intestines uptake: 0.46 ± 0.31 %ID/g
  Kidneys uptake: 5.68 ± 1.28 %ID/g
  Lacrimal glands uptake: 0.06 ± 0.01 %ID/g
  Liver uptake: 0.77 ± 0.52 %ID/g
  Lungs uptake: 1.05 ± 0.36 %ID/g
  Muscle uptake: 0.11 ± 0.02 %ID/g
  Pancreas uptake: 0.15 ± 0.03 %ID/g
  Salivary glands uptake: 0.39 ± 0.08 %ID/g
  Spleen uptake: 0.64 ± 0.10 %ID/g
  Stomach uptake: 0.83 ± 0.66 %ID/g
  Testes uptake: 0.67 ± 0.24 %ID/g
  Thyroid uptake: 0.53 ± 0.07 %ID/g
  Tumor uptake: 65.3 ± 19.6 %ID/g
  Tumor:Blood uptake ratio: 113 ± 44.5
  Tumor:Kidney uptake ratio: 11.5 ± 2.22
  Tumor:Muscle uptake ratio: 594 ± 177
  Tumor:Salivary gland uptake ratio: 175 ± 58.1
[3]; 72 h post-injection
  Adrenal glands uptake: 0.33 ± 0.06 %ID/g
  Blood uptake: 0.08 ± 0.06 %ID/g
  Blood:Salivary gland uptake ratio: 0.43 ± 0.28
  Bone uptake: 0.06 ± 0.02 %ID/g
  Brain uptake: 0.01 ± 0.00 %ID/g
  Fat uptake: 0.07 ± 0.03 %ID/g
  Heart uptake: 0.14 ± 0.03 %ID/g
  Intestines uptake: 0.13 ± 0.08 %ID/g
  Kidneys uptake: 2.19 ± 0.21 %ID/g
  Lacrimal glands uptake: 0.01 ± 0.01 %ID/g
  Liver uptake: 0.25 ± 0.02 %ID/g
  Lungs uptake: 0.26 ± 0.08 %ID/g
  Muscle uptake: 0.03 ± 0.01 %ID/g
  Pancreas uptake: 0.06 ± 0.01 %ID/g
  Salivary glands uptake: 0.18 ± 0.03 %ID/g
  Spleen uptake: 0.54 ± 0.14 %ID/g
  Stomach uptake: 0.20 ± 0.17 %ID/g
  Testes uptake: 0.35 ± 0.05 %ID/g
  Thyroid uptake: 0.28 ± 0.05 %ID/g
  Tumor uptake: 64.1 ± 15.0 %ID/g
  Tumor:Blood uptake ratio: 1493 ± 1213
  Tumor:Kidney uptake ratio: 29.2 ± 6.22
  Tumor:Muscle uptake ratio: 2043 ± 734
  Tumor:Salivary gland uptake ratio: 362 ± 111
[3]; 120 h post-injection
  Adrenal glands uptake: 0.30 ± 0.14 %ID/g
  Blood uptake: 0.04 ± 0.03 %ID/g
  Blood:Salivary gland uptake ratio: 0.22 ± 0.13
  Bone uptake: 0.05 ± 0.02 %ID/g
  Brain uptake: 0.01 ± 0.00 %ID/g
  Fat uptake: 0.05 ± 0.03 %ID/g
  Heart uptake: 0.08 ± 0.02 %ID/g
  Intestines uptake: 0.10 ± 0.10 %ID/g
  Kidneys uptake: 1.43 ± 0.48 %ID/g
  Lacrimal glands uptake: 0.01 ± 0.01 %ID/g
  Liver uptake: 0.18 ± 0.07 %ID/g
  Lungs uptake: 0.12 ± 0.05 %ID/g
  Muscle uptake: 0.02 ± 0.01 %ID/g
  Pancreas uptake: 0.05 ± 0.03 %ID/g
  Salivary glands uptake: 0.13 ± 0.03 %ID/g
  Spleen uptake: 0.55 ± 0.27 %ID/g
  Stomach uptake: 0.04 ± 0.02 %ID/g
  Testes uptake: 0.22 ± 0.09 %ID/g
  Thyroid uptake: 0.17 ± 0.02 %ID/g
  Tumor uptake: 65.7 ± 19.1 %ID/g
  Tumor:Blood uptake ratio: 4346 ± 4168
  Tumor:Kidney uptake ratio: 52.1 ± 16.3
  Tumor:Muscle uptake ratio: 3358 ± 2122
  Tumor:Salivary gland uptake ratio: 604 ± 226
[3]; mouse, in vivo
  Peaked tumor uptake relative to ^68Ga-labeled non-albumin-binder analog: ~ 3 fold
[3]; peak over 1-120 h post-injection
  Peaked average tumor uptake: ~ 60 %ID/g
[3]; post-injection, listed as 177Lu-labeled HTK04048
  Time of peak tumor uptake: 4 to 24 h
